Test system: Acinetobacter baumannii strains
Experiment: Antibiotic susceptibility test (CLSI disk diffusion test method, read per CLSI 2016)
Assay type: cell-based
Method: Strain identification was performed using a kit such as AT 32 GN system (bioMérieux, Marcy l'Etoile, France). […] In Table 2 below, S, I, and R are the results obtained by evaluating susceptibility to the antibacterial agents, in which ‘S’ means susceptible, ‘I’ means intermediate, and ‘R’ means resistant.
Strain identification was performed using a kit such as ATB 32 GN system (bioMédrieux, Marcy l'Etoile, France). […] In Table 6 below, S, I, and R are the results obtained by evaluating susceptibility to the antibacterial agents, in which ‘S’ means susceptible, ‘I’ means intermediate, and ‘R’ means resistant.
Strain identification was performed using a kit such as ATB 32 GN system (bioMérieux, Marcy l'Etoile, France). […] In Table 10 below, S, I, and R are the results obtained by evaluating susceptibility to the antibacterial agents, in which ‘S’ means susceptible, T means intermediate, and ‘R’ means resistant.

NCC[C@H](O)C(=O)N[C@@H]1C[C@H](N)[C@@H](O[C@H]2O[C@H](CN)[C@@H](O)[C@H](O)[C@H]2O)[C@H](O)[C@H]1O[C@H]1O[C@H](CO)[C@@H](O)[C@H](N)[C@H]1O [Amikacin, amikacin]
antibiotic susceptibility class (host strain YMC14/01/C29): R | antibiotic susceptibility class (host strain YMC14/01/IP122): R | antibiotic susceptibility class (host strain YMC14/01/L8): R | antibiotic susceptibility class (host strain YMC14/01/P31): R | antibiotic susceptibility class (host strain YMC14/01/P117): R | antibiotic susceptibility class (host strain YMC14/01/P224): R | antibiotic susceptibility class (host strain YMC14/01/P727): R | antibiotic susceptibility class (host strain YMC14/01/P728): R | antibiotic susceptibility class (host strain YMC14/01/R130): R | antibiotic susceptibility class (host strain YMC14/01/R160): R | antibiotic susceptibility class (host strain YMC14/01/R198): R | antibiotic susceptibility class (host strain YMC14/01/R257): S | antibiotic susceptibility class (host strain YMC14/01/R270): R | antibiotic susceptibility class (host strain YMC14/01/R324): R | antibiotic susceptibility class (host strain YMC14/01/R443): R | antibiotic susceptibility class (host strain YMC14/01/R451): R | antibiotic susceptibility class (host strain YMC14/01/R560): R | antibiotic susceptibility class (host strain YMC14/01/R617): R | antibiotic susceptibility class (host strain YMC14/01/R671): R | antibiotic susceptibility class (host strain YMC14/01/R732): R | antibiotic susceptibility class (host strain YMC14/01/R767): R | antibiotic susceptibility class (host strain YMC14/01/R904): R | antibiotic susceptibility class (host strain YMC14/01/R905): R | antibiotic susceptibility class (host strain YMC14/01/R921): S | antibiotic susceptibility class (host strain YMC14/01/R941): R | antibiotic susceptibility class (host strain YMC14/01/R958): R | antibiotic susceptibility class (host strain YMC14/01/R1006): R | antibiotic susceptibility class (host strain YMC14/01/R1199): R | antibiotic susceptibility class (host strain YMC14/01/R1659): R | antibiotic susceptibility class (host strain YMC14/01/R1722): R | antibiotic susceptibility class (host strain YMC14/01/R1752): R | antibiotic susceptibility class (host strain YMC14/01/R2429): R | antibiotic susceptibility class (host strain YMC14/01/R2572): R | antibiotic susceptibility class (host strain YMC14/01/R2855): R | antibiotic susceptibility class (host strain YMC14/01/R2945): R | antibiotic susceptibility class (host strain YMC14/01/R3007): R | antibiotic susceptibility class (host strain YMC14/01/R3129): R | antibiotic susceptibility class (host strain YMC14/01/R3317): R | antibiotic susceptibility class (host strain YMC14/01/R3474): R | antibiotic susceptibility class (host strain YMC14/01/R3574): R | antibiotic susceptibility class (host strain YMC14/01/U313): R | antibiotic susceptibility class (host strain YMC14/01/U318): R | antibiotic susceptibility class (host strain YMC14/02/L18): R | antibiotic susceptibility class (host strain YMC14/02/P47): R | antibiotic susceptibility class (host strain YMC14/02/R1860): S | antibiotic susceptibility class (host strain YMC14/02/R2417): R | antibiotic susceptibility class (host strain YMC14/02/R2599): S | antibiotic susceptibility class (host strain YMC14/02/R2668): R | antibiotic susceptibility class (host strain YMC14/02/R2758): R | antibiotic susceptibility class (host strain YMC14/02/R2781): R | antibiotic susceptibility class (host strain YMC14/02/R3106): R | antibiotic susceptibility class (host strain YMC14/02/R3419): R | antibiotic susceptibility class (host strain YMC14/02/U1607): S | antibiotic susceptibility class (host strain YMC14/03/L9): S | antibiotic susceptibility class (host strain YMC14/03/P471): S | antibiotic susceptibility class (host strain YMC14/03/R122): S | antibiotic susceptibility class (host strain YMC14/03/R217): R | antibiotic susceptibility class (host strain YMC14/03/R380): R | antibiotic susceptibility class (host strain YMC14/03/R618): S | antibiotic susceptibility class (host strain YMC14/03/R2144): R | antibiotic susceptibility class (host strain YMC14/03/U4616): R | antibiotic susceptibility class (host strain YMC14/04/R1078): S | antibiotic susceptibility class (host strain YMC14/04/R1080): S | antibiotic susceptibility S/I/R (host strain YMC14/06/R2359): R | susceptibility category (S/I/R) (host strain YMC14/06/R2359): R | antibiotic susceptibility S/I/R (host strain YMC14/08/R1169): R | susceptibility category (S/I/R) (host strain YMC14/08/R1169): R | antibiotic susceptibility S/I/R (host strain YMC14/08/T90): R | susceptibility category (S/I/R) (host strain YMC14/08/T90): R | antibiotic susceptibility S/I/R (host strain YMC15/02/R436): R | susceptibility category (S/I/R) (host strain YMC15/02/R436): R | antibiotic susceptibility S/I/R (host strain YMC15/02/T28): R | susceptibility category (S/I/R) (host strain YMC15/02/T28): R | antibiotic susceptibility S/I/R (host strain YMC15/03/R1604): R | susceptibility category (S/I/R) (host strain YMC15/03/R1604): R | antibiotic susceptibility S/I/R (host strain YMC15/09/R1869): R | susceptibility category (S/I/R) (host strain YMC15/09/R1869): R | antibiotic susceptibility S/I/R (host strain YMC16/01/P11): R | susceptibility category (S/I/R) (host strain YMC16/01/P11): R | antibiotic susceptibility S/I/R (host strain YMC16/01/R123): R | susceptibility category (S/I/R) (host strain YMC16/01/R123): R | antibiotic susceptibility S/I/R (host strain YMC16/01/R198): R | susceptibility category (S/I/R) (host strain YMC16/01/R198): R | antibiotic susceptibility S/I/R (host strain YMC16/01/R353): R | susceptibility category (S/I/R) (host strain YMC16/01/R353): R | antibiotic susceptibility S/I/R (host strain YMC16/01/R397): R | susceptibility category (S/I/R) (host strain YMC16/01/R397): R | antibiotic susceptibility S/I/R (host strain YMC16/01/R405): R | susceptibility category (S/I/R) (host strain YMC16/01/R405): R | antibiotic susceptibility S/I/R (host strain YMC16/03/R4461): R | susceptibility category (S/I/R) (host strain YMC16/03/R4461): R | antibiotic susceptibility S/I/R (host strain YMC16/07/R2512): R | susceptibility category (S/I/R) (host strain YMC16/07/R2512): R | antibiotic susceptibility S/I/R (host strain YMC16/09/R2471): R | susceptibility category (S/I/R) (host strain YMC16/09/R2471): R | antibiotic susceptibility S/I/R (host strain YMC16/10/R2537): R | susceptibility category (S/I/R) (host strain YMC16/10/R2537): R | antibiotic susceptibility S/I/R (host strain YMC16/12/B11422): R | susceptibility category (S/I/R) (host strain YMC16/12/B11422): R | antibiotic susceptibility S/I/R (host strain YMC16/12/B11449): R | susceptibility category (S/I/R) (host strain YMC16/12/B11449): R | antibiotic susceptibility S/I/R (host strain YMC16/12/B13325): R | susceptibility category (S/I/R) (host strain YMC16/12/B13325): R | antibiotic susceptibility S/I/R (host strain YMC16/12/P503): R | susceptibility category (S/I/R) (host strain YMC16/12/P503): R | antibiotic susceptibility S/I/R (host strain YMC16/12/R4637): R | susceptibility category (S/I/R) (host strain YMC16/12/R4637): R | antibiotic susceptibility S/I/R (host strain YMC17/01/B8053): R | susceptibility category (S/I/R) (host strain YMC17/01/B8053): R | antibiotic susceptibility S/I/R (host strain YMC17/01/B10087): R | susceptibility category (S/I/R) (host strain YMC17/01/B10087): R | antibiotic susceptibility S/I/R (host strain YMC17/01/B12075): S | susceptibility category (S/I/R) (host strain YMC17/01/B12075): S | antibiotic susceptibility S/I/R (host strain YMC17/01/B13454): R | susceptibility category (S/I/R) (host strain YMC17/01/B13454): R | antibiotic susceptibility S/I/R (host strain YMC17/01/P518): R | susceptibility category (S/I/R) (host strain YMC17/01/P518): R | antibiotic susceptibility S/I/R (host strain YMC17/01/R2812): R | susceptibility category (S/I/R) (host strain YMC17/01/R2812): R | antibiotic susceptibility S/I/R (host strain YMC17/02/B14): R | susceptibility category (S/I/R) (host strain YMC17/02/B14): R | antibiotic susceptibility S/I/R (host strain YMC17/02/B87): S | susceptibility category (S/I/R) (host strain YMC17/02/B87): S | antibiotic susceptibility S/I/R (host strain YMC17/02/B721): R | susceptibility category (S/I/R) (host strain YMC17/02/B721): R | antibiotic susceptibility S/I/R (host strain YMC17/02/B4039): R | susceptibility category (S/I/R) (host strain YMC17/02/B4039): R | antibiotic susceptibility S/I/R (host strain YMC17/02/B4520): R | susceptibility category (S/I/R) (host strain YMC17/02/B4520): R | antibiotic susceptibility S/I/R (host strain YMC17/02/B4864): S | susceptibility category (S/I/R) (host strain YMC17/02/B4864): S | antibiotic susceptibility S/I/R (host strain YMC17/02/B8414): R | susceptibility category (S/I/R) (host strain YMC17/02/B8414): R | antibiotic susceptibility S/I/R (host strain YMC17/02/P523): S | susceptibility category (S/I/R) (host strain YMC17/02/P523): S | antibiotic susceptibility S/I/R (host strain YMC17/02/R541): R | susceptibility category (S/I/R) (host strain YMC17/02/R541): R | antibiotic susceptibility S/I/R (host strain YMC17/02/R2392): R | susceptibility category (S/I/R) (host strain YMC17/02/R2392): R | antibiotic susceptibility S/I/R (host strain YMC17/03/B4730): R | susceptibility category (S/I/R) (host strain YMC17/03/B4730): R | antibiotic susceptibility S/I/R (host strain YMC17/03/B5000): R | susceptibility category (S/I/R) (host strain YMC17/03/B5000): R | antibiotic susceptibility S/I/R (host strain YMC17/03/P971): R | susceptibility category (S/I/R) (host strain YMC17/03/P971): R | antibiotic susceptibility S/I/R (host strain YMC17/03/R348): R | susceptibility category (S/I/R) (host strain YMC17/03/R348): R | antibiotic susceptibility S/I/R (host strain YMC17/03/R585): R | susceptibility category (S/I/R) (host strain YMC17/03/R585): R | antibiotic susceptibility S/I/R (host strain YMC17/03/R1888): R | susceptibility category (S/I/R) (host strain YMC17/03/R1888): R | antibiotic susceptibility S/I/R (host strain YMC17/03/R3279): R | susceptibility category (S/I/R) (host strain YMC17/03/R3279): R | antibiotic susceptibility S/I/R (host strain YMC17/03/R4077): R | susceptibility category (S/I/R) (host strain YMC17/03/R4077): R | antibiotic susceptibility S/I/R (host strain YMC17/03/R4607): R | susceptibility category (S/I/R) (host strain YMC17/03/R4607): R | antibiotic susceptibility S/I/R (host strain YMC17/04/R488): R | susceptibility category (S/I/R) (host strain YMC17/04/R488): R | antibiotic susceptibility S/I/R (host strain YMC17/04/R640): R | susceptibility category (S/I/R) (host strain YMC17/04/R640): R | antibiotic susceptibility S/I/R (host strain YMC/17/05/R1095): R | susceptibility category (S/I/R) (host strain YMC/17/05/R1095): R
